Test results taken from PubChem BioAssay AID2060623 (Molecular Pharmacology Branch, DTP, NCI, 2025).
pIC50: −log10 of the molar value. “And” between values parts separate entries of the source, which are not always exact repeats. Equal values may be shown once.

Test system: 227483-062-R1-J1-PDC complex spheroids with HUVEC/MSC, viability
Test: Anticancer human tumor 227483-062-R1-J1-PDC patient-derived pancreatic carcinoma cell line growth inhibition [CLK]
Settings: for viability, T/C: stronger effect = lower value
Summary of the method: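 Multi-cell-type spheroids combined patient-derived tumor cells with HUVEC endothelial cells and human mesenchymal stem cells. Paired agents were dosed in half-log steps down from about clinical Cmax, or from 10 microM where Cmax was unknown.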

[1] = curve of first compound, second compound 0.0316 µM
[2] = curve of first compound, second compound 0.1 µM
[3] = curve of first compound, second compound 0.316 µM
[4] = curve of first compound, second compound 1 µM
[5] = curve of first compound, second compound 3.16 µM
[6] = curve of first compound, second compound 10 µM
[7] = second compound 0.0316 µM, first compound 0.0316 µM
[8] = second compound 0.0316 µM, first compound 0.1 µM
[9] = second compound 0.0316 µM, first compound 0.316 µM
[10] = second compound 0.0316 µM, first compound 1 µM
[11] = second compound 0.0316 µM, first compound 3.16 µM
[12] = second compound 0.0316 µM, first compound 10 µM
[13] = second compound 0.1 µM, first compound 0.0316 µM
[14] = second compound 0.1 µM, first compound 0.1 µM
[15] = second compound 0.1 µM, first compound 0.316 µM
[16] = second compound 0.1 µM, first compound 1 µM
[17] = second compound 0.1 µM, first compound 3.16 µM
[18] = second compound 0.1 µM, first compound 10 µM
[19] = second compound 0.316 µM, first compound 0.0316 µM
[20] = second compound 0.316 µM, first compound 0.1 µM
[21] = second compound 0.316 µM, first compound 0.316 µM
[22] = second compound 0.316 µM, first compound 1 µM
[23] = second compound 0.316 µM, first compound 3.16 µM
[24] = second compound 0.316 µM, first compound 10 µM
[25] = second compound 1 µM, first compound 0.0316 µM
[26] = second compound 1 µM, first compound 0.1 µM
[27] = second compound 1 µM, first compound 0.316 µM
[28] = second compound 1 µM, first compound 1 µM
[29] = second compound 1 µM, first compound 3.16 µM
[30] = second compound 1 µM, first compound 10 µM
[31] = second compound 3.16 µM, first compound 0.0316 µM
[32] = second compound 3.16 µM, first compound 0.1 µM
[33] = second compound 3.16 µM, first compound 0.316 µM
[34] = second compound 3.16 µM, first compound 1 µM
[35] = second compound 3.16 µM, first compound 3.16 µM
[36] = second compound 3.16 µM, first compound 10 µM
[37] = second compound 10 µM, first compound 0.0316 µM
[38] = second compound 10 µM, first compound 0.1 µM
[39] = second compound 10 µM, first compound 0.316 µM
[40] = second compound 10 µM, first compound 1 µM
[41] = second compound 10 µM, first compound 3.16 µM
[42] = second compound 10 µM, first compound 10 µM
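Note: spheroids exposed to compounds for seven days before readout.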
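Throughout, for viability, T/C: percent of DMSO vehicle control luminescence as 100% viability.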

## Nc1ccccc1NC(=O)c1ccc(CNC(=O)OCc2cccnc2)cc1 + CN1CCN(c2cc(C(=O)Nc3cc4cc(-c5cnn(C)c5)ccc4cn3)ccn2)CC1
[1]
  pIC50: < 5.00
[2]
  pIC50: 5.98
[3]
  pIC50: > 7.50
[4]
  pIC50: > 7.50
[5]
  pIC50: > 7.50
[6]
  pIC50: > 7.50
[7]
  viability, T/C: 106%
[8]
  viability, T/C: 108%
[9]
  viability, T/C: 107%
[10]
  viability, T/C: 126%
[11]
  viability, T/C: 131%
[12]
  viability, T/C: 51.6%
[13]
  viability, T/C: 63.7%
[14]
  viability, T/C: 76%
[15]
  viability, T/C: 57.4%
[16]
  viability, T/C: 48.6%
[17]
  viability, T/C: 36.9%
[18]
  viability, T/C: 17.1%
[19]
  viability, T/C: 4.44%
[20]
  viability, T/C: 6.25%
[21]
  viability, T/C: 7.44%
[22]
  viability, T/C: 3.95%
[23]
  viability, T/C: 1.6%
[24]
  viability, T/C: 1.34%
[25]
  viability, T/C: 2.7%
[26]
  viability, T/C: 1.53%
[27]
  viability, T/C: 1.99%
[28]
  viability, T/C: 2.47%
[29]
  viability, T/C: 1.45%
[30]
  viability, T/C: 1.58%
[31]
  viability, T/C: 3.26%
[32]
  viability, T/C: 4.66%
[33]
  viability, T/C: 2.26%
[34]
  viability, T/C: 2.68%
[35]
  viability, T/C: 2.71%
[36]
  viability, T/C: 2.41%
[37]
  viability, T/C: 3.24%
[38]
  viability, T/C: 1.86%
[39]
  viability, T/C: 2.94%
[40]
  viability, T/C: 2.31%
[41]
  viability, T/C: 2.71%
[42]
  viability, T/C: 1.85%

## CN1CCN(c2cc(C(=O)Nc3cc4cc(-c5cnn(C)c5)ccc4cn3)ccn2)CC1
Compound 0.0316 µM
  viability, T/C: 95.7% [middle of 12 runs]
Compound 0.1 µM
  viability, T/C: 62.8% [middle of 12 runs]
Compound 0.316 µM
  viability, T/C: 5.79% [middle of 12 runs]
Compound 1 µM
  viability, T/C: 1.97% [middle of 12 runs]
Compound 3.16 µM
  viability, T/C: 3.33% [middle of 12 runs]
Compound 10 µM
  viability, T/C: 2.87% [middle of 12 runs]
Compound alone, run of 09/18/2023
  IC50: 129 nM [middle of 11 runs]

## COc1cccc2c1C(=O)c1c(O)c3c(c(O)c1C2=O)CC(O)(C(=O)CO)CC3OC1CC(N)C(O)C(C)O1 (stereo not given)
Compound 0.0316 µM
  viability, T/C: 90% and 75.6%
Compound 0.1 µM
  viability, T/C: 108% and 58%
Compound 0.316 µM
  viability, T/C: 54.2% and 42.7%
Compound 1 µM
  viability, T/C: 34.5% and 24.4%
Compound 3.16 µM
  viability, T/C: 7.31% and 2.77%
Compound 10 µM
  viability, T/C: 8.24% and 9.84%
Curve of compound
  pIC50: 6.32 and 6.73

## Nc1ccn(C2OC(CO)C(O)C2(F)F)c(=O)n1 (stereo not given) + CNC(=O)c1ccc(Nc2nc(OC3CCCC3)c3c(-c4ccc5nc(C)oc5c4)c[nH]c3n2)c(OC)c1
[1]
  pIC50: 7.17
[2]
  pIC50: 7.11
[3]
  pIC50: 7.28
[4]
  pIC50: > 7.50
[5]
  pIC50: > 7.50
[6]
  pIC50: > 7.50
[7]
  viability, T/C: 77.5%
[8]
  viability, T/C: 34.3%
[9]
  viability, T/C: 34.2%
[10]
  viability, T/C: 34.4%
[11]
  viability, T/C: 28.2%
[12]
  viability, T/C: 20%
[13]
  viability, T/C: 93.3%
[14]
  viability, T/C: 36.2%
[15]
  viability, T/C: 35.6%
[16]
  viability, T/C: 34.2%
[17]
  viability, T/C: 26.8%
[18]
  viability, T/C: 19.3%
[19]
  viability, T/C: 62.2%
[20]
  viability, T/C: 32.6%
[21]
  viability, T/C: 27.1%
[22]
  viability, T/C: 28.9%
[23]
  viability, T/C: 21.8%
[24]
  viability, T/C: 15.8%
[25]
  viability, T/C: 49.2%
[26]
  viability, T/C: 28.6%
[27]
  viability, T/C: 20.2%
[28]
  viability, T/C: 21.1%
[29]
  viability, T/C: 15.5%
[30]
  viability, T/C: 12.6%
[31]
  viability, T/C: 29%
[32]
  viability, T/C: 20.8%
[33]
  viability, T/C: 19.6%
[34]
  viability, T/C: 15.9%
[35]
  viability, T/C: 13.3%
[36]
  viability, T/C: 11%
[37]
  viability, T/C: 23.6%
[38]
  viability, T/C: 22%
[39]
  viability, T/C: 16.7%
[40]
  viability, T/C: 15.2%
[41]
  viability, T/C: 13.6%
[42]
  viability, T/C: 9.42%

## CC(Nc1ccc2c(c1)OCCn1cc(N3C(=O)OCC3C(F)F)nc1-2)C(N)=O (stereo not given) + CN1CCN(c2cc(C(=O)Nc3cc4cc(-c5cnn(C)c5)ccc4cn3)ccn2)CC1
[1]
  pIC50: < 5.00
[2]
  pIC50: 6.61
[3]
  pIC50: > 7.50
[4]
  pIC50: > 7.50
[5]
  pIC50: > 7.50
[6]
  pIC50: > 7.50
[7]
  viability, T/C: 108%
[8]
  viability, T/C: 81.5%
[9]
  viability, T/C: 70%
[10]
  viability, T/C: 77.8%
[11]
  viability, T/C: 63%
[12]
  viability, T/C: 66.1%
[13]
  viability, T/C: 72.6%
[14]
  viability, T/C: 60.6%
[15]
  viability, T/C: 47.2%
[16]
  viability, T/C: 45.7%
[17]
  viability, T/C: 48.7%
[18]
  viability, T/C: 44.8%
[19]
  viability, T/C: 7.83%
[20]
  viability, T/C: 6.06%
[21]
  viability, T/C: 6.08%
[22]
  viability, T/C: 6.51%
[23]
  viability, T/C: 6.66%
[24]
  viability, T/C: 5.69%
[25]
  viability, T/C: 3.5%
[26]
  viability, T/C: 1.22%
[27]
  viability, T/C: 1.34%
[28]
  viability, T/C: 1.35%
[29]
  viability, T/C: 2.69%
[30]
  viability, T/C: 2.57%
[31]
  viability, T/C: 5.8%
[32]
  viability, T/C: 3.43%
[33]
  viability, T/C: 2.3%
[34]
  viability, T/C: 2.9%
[35]
  viability, T/C: 2.51%
[36]
  viability, T/C: 2.34%
[37]
  viability, T/C: 2.26%
[38]
  viability, T/C: 2.36%
[39]
  viability, T/C: 2.91%
[40]
  viability, T/C: 1.47%
[41]
  viability, T/C: 1.7%
[42]
  viability, T/C: 3.3%
